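Cells were grown in 96-well plates and exposed to each compound for 48 hours at five concentrations; endpoints were interpolated linearly between bracketing concentrations, or set to the highest concentration if not reached. Here, GI50 denotes the concentration required for 50% inhibition of growth. At the TGI there is no net growth.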
Key:
Experiment in all cases: NCI anticancer screen, dose series, 48 h
[1] = tested on: TK-10 renal
[2] = tested on: HCC-2998 colon
[3] = tested on: RXF 393 renal
[4] = tested on: SNB-75 CNS
[5] = tested on: CAKI-1 renal
[6] = tested on: SK-MEL-28 melanoma
[7] = tested on: SK-MEL-5 melanoma
[8] = tested on: HOP-92 NSCLC
[9] = tested on: K-562 leukemia
[10] = tested on: HT29 colon
[11] = tested on: SNB-19 CNS
[12] = tested on: SF-295 CNS
[13] = tested on: M14 melanoma
[14] = tested on: OVCAR-5 ovarian
[15] = tested on: UO-31 renal
[16] = tested on: PC-3 prostate
[17] = tested on: A549 NSCLC
[18] = tested on: MCF7 breast
[19] = tested on: NCI/ADR-RES ovarian
[20] = tested on: LOX IMVI melanoma
[21] = tested on: U251 CNS
[22] = tested on: HS 578T breast
[23] = tested on: RPMI-8226 leukemia
[24] = tested on: ACHN renal
[25] = tested on: HCT-116 colon
[26] = tested on: MDA-MB-468 breast
[27] = tested on: COLO 205 colon
[28] = tested on: OVCAR-3 ovarian
[29] = tested on: SF-268 CNS
[30] = tested on: IGROV1 ovarian
[31] = tested on: NCI-H460 lung
[32] = tested on: OVCAR-8 ovarian
[33] = tested on: SN12C renal
[34] = tested on: 786-0 renal
[35] = tested on: SR leukemia
[36] = tested on: UACC-257 melanoma
[37] = tested on: HCT-15 colon
[38] = tested on: MDA-MB-231 breast
[39] = tested on: MALME-3M melanoma
[40] = tested on: DU-145 prostate
[41] = tested on: HOP-62 NSCLC
[42] = tested on: MDA-MB-435
[43] = tested on: SK-MEL-2 melanoma
[44] = tested on: UACC-62 melanoma
[45] = tested on: NCI-H522 lung
[46] = tested on: NCI-H23 lung
[47] = tested on: A498 renal
[48] = tested on: KM12 colon
[49] = tested on: CCRF-CEM leukemia
[50] = tested on: SK-OV-3 ovarian
[51] = tested on: SW-620 colon
[52] = tested on: HL-60(TB) leukemia
[53] = tested on: OVCAR-4 ovarian
[54] = tested on: EKVX NSCLC
[55] = tested on: SF-539 CNS
[56] = tested on: MOLT-4 leukemia
[57] = tested on: BT-549 breast
[58] = tested on: NCI-H226 lung

## OCCNc1oc(-c2ccccc2)nc1[P+](c1ccccc1)(c1ccccc1)c1ccccc1
[1]
  GI50: 6 µM
  TGI: 23.1 µM
[2]
  GI50: 3.3 µM
  TGI: 11.7 µM
[3]
  GI50: 1.86 µM
  TGI: 9.35 µM
[4]
  GI50: 1.85 µM
  TGI: 7.92 µM
[5]
  GI50: 11.5 µM
  TGI: 43.1 µM
[6]
  GI50: 2.59 µM
  TGI: 11.4 µM
[7]
  GI50: 1.52 µM
  TGI: 2.92 µM
[8]
  GI50: 1.35 µM
  TGI: 6.73 µM
[9]
  GI50: 2.5 µM
  TGI: 20.7 µM
[10]
  GI50: 3.04 µM
  TGI: 17.5 µM
[11]
  GI50: 2.82 µM
  TGI: 10.9 µM
[12]
  GI50: 10.5 µM
  TGI: 24.2 µM
[13]
  GI50: 4.4 µM
  TGI: 20.2 µM
[14]
  GI50: 5.06 µM
  TGI: 34.2 µM
[15]
  GI50: 20.4 µM
  TGI: 71 µM
[16]
  GI50: 2.22 µM
  TGI: 11.1 µM
[17]
  GI50: 18.5 µM
  TGI: > 100 µM
[18]
  GI50: 2.69 µM
  TGI: 12.5 µM
[19]
  GI50: > 100 µM
  TGI: > 100 µM
[20]
  GI50: 3.93 µM
  TGI: 14.6 µM
[21]
  GI50: 3.28 µM
  TGI: 15.4 µM
[22]
  GI50: 3.21 µM
  TGI: 13.3 µM
[23]
  GI50: 0.956 µM
  TGI: 11.7 µM
[24]
  GI50: 18.8 µM
  TGI: 85.1 µM
[25]
  GI50: 4.8 µM
  TGI: 35.1 µM
[26]
  GI50: 1.08 µM
  TGI: 4.35 µM
[27]
  GI50: 2.14 µM
  TGI: 7.86 µM
[28]
  GI50: 2.35 µM
  TGI: 11 µM
[29]
  GI50: 3.4 µM
  TGI: 16.6 µM
[30]
  GI50: 2.57 µM
  TGI: 8.53 µM
[31]
  GI50: 3.29 µM
  TGI: 13.6 µM
[32]
  GI50: 3.79 µM
  TGI: 15.2 µM
[33]
  GI50: 2.82 µM
  TGI: 8.53 µM
[34]
  GI50: 13.2 µM
  TGI: 29.8 µM
[35]
  GI50: 5.12 µM
  TGI: 22.8 µM
[36]
  GI50: 2.65 µM
  TGI: 8.47 µM
[37]
  GI50: 29.8 µM
  TGI: > 100 µM
[38]
  GI50: 1.87 µM
  TGI: 5.2 µM
[39]
  GI50: 1.95 µM
  TGI: 6.52 µM
[40]
  GI50: 6.1 µM
  TGI: 21.3 µM
[41]
  GI50: 10 µM
  TGI: 34.4 µM
[42]
  GI50: 2.99 µM
  TGI: 11.3 µM
[43]
  GI50: 2.58 µM
  TGI: 7.18 µM
[44]
  GI50: 1.63 µM
  TGI: 4.28 µM
[45]
  GI50: 2.15 µM
  TGI: 9.32 µM
[46]
  GI50: 4.3 µM
  TGI: 23.8 µM
[47]
  GI50: 15.4 µM
  TGI: 48.2 µM
[48]
  GI50: 3.21 µM
  TGI: 11.2 µM
[49]
  GI50: 3.07 µM
  TGI: 19.9 µM
[50]
  GI50: 3.58 µM
  TGI: 16.6 µM
[51]
  GI50: 4.74 µM
  TGI: 35.5 µM
[52]
  GI50: 1.57 µM
  TGI: 5.33 µM
[53]
  GI50: 3.68 µM
  TGI: 59.4 µM
[54]
  GI50: 5.1 µM
  TGI: 28.3 µM
[55]
  GI50: 5.63 µM
  TGI: 19.5 µM
[56]
  GI50: 4.43 µM
  TGI: 35.1 µM
[57]
  GI50: 2.51 µM
  TGI: 7.88 µM
[58]
  GI50: 4.05 µM
  TGI: 24.5 µM
